Experimental data: patent US8394959B2, “Maleate salts of (E)-N-{4-[3-chloro-4-(2-pyridinylmethoxy)anilino]-3-cyano-7-ethoxy-6-quinolinyl)-4-(dimethylamino)-2-buteramide and crystalline forms thereof” (Wyeth LLC, priority 2007, dated 2013)
In brackets after ≈: the same amount, converted by molar mass. Like-named read-outs stand apart in the source and are kept apart here.

Columns and labels:
[1] = 20-25° C., relative humidity 50-60%, 24 hours, XRD
Protocol: FIG. 7 illustrates an XRD scan of crystalline (E)-N-{4-[3-chloro-4-(2-pyridinylmethoxy)anilino]-3-cyano-7-ethoxy-6-quinolinyl}-4-(dimethylamino)-2-butenamide maleate in Form II, before and after exposure to relative humidity of 50-60% at an ambient temperature of 20-25° C. for 24 hours.
FIG. 8 is an XRD scan of crystalline (E)-N-{4-[3-chloro-4-(2-pyridinylmethoxy)anilino]-3-cyano-7-ethoxy-6-quinolinyl}-4-(dimethylamino)-2-butenamide maleate in Form I before (lower scan), and after (upper scan) exposure to relative humidity of 50-60% at room temperature of 20-25° C. for 24 hours.

[2] = Dynamic vapor sorption (DVS) hygroscopicity; format: physicochemical; conditions: DVS isotherm, FIG. 2
Text: The relative stability and hygroscopicity of the two crystalline forms of the maleate salt was studied in detail by dynamic vapor sorption (DVS).

[3] = Solid state stability in closed and open containers at 40° C. and 75% RH; format: physicochemical; conditions: for time remained stable: closed and open containers at 40° C. and 75% RH
Text: Both Form I and Form II remained stable for 6 months under these conditions. […] Samples in the closed containers remained dry. HPLC purity analysis indicated no significant increase in degradation products in both open and closed conditions for up to 6 months.

[4] = Stability of crystalline forms of the reslurry at room temperature for 14 days; format: physicochemical; conditions: reslurry in Ethyl acetate
Text: In one embodiment the re-slurry is allowed to stand for about 14 days.

[5] = tested on: emectic receptors in the stomach; experiment: Emectic receptor interaction / diarrhea in mammals; format: in vivo; conditions: in words
[6] = Physicochemical properties of maleate salt pilot batches; conditions: for Aqueous Solubility: footnote: s the free base
[7] = Salt form screen: physicochemical properties (solubility, pH, hygroscopicity); conditions: for pH: Table 1, pH of the solution
[8] = Compound pharmacokinetics (systemic exposure) in rats; format: in vivo, rat; set-up: AUC/Dose: unit not given here; conditions: for AUC(0-t): read-out: AUC0-24
[9] = Solubility comparison of free base and maleate salt; conditions: for pH of solution in 2% Tween 80 in water: solvent 2% Tween 80 in water; for pH of solution in Water: solvent water
physchem = conditions: aqueous with cosolvent or surfactant or cyclodextrin
[10] = Water solubility and BCS classification of the free base; format: physicochemical
Text: Pat. […] The compound is classified, based on the Biopharmaceutical Classification System, as a BCS Class IV compound (low water solubility and low permeability). […] The water solubility increases with decreasing pH as the compound becomes ionized. This compound is […] rate limiting. There is a need for a form of this compound with improved physicochemical properties.

[11] = Closed Vial at 40° C./75% RH, 1 week in storage
[12] = Closed Vial at 40° C./75% RH, 2 weeks in storage
[13] = Closed Vial at 40° C./75% RH, 4 weeks in storage
[14] = Closed Vial at 40° C./75% RH, 12 weeks in storage
[15] = Closed Vial at 40° C./75% RH, 24 weeks in storage
[16] = Closed Vial at 40° C./75% RH, Initial
[17] = Open Vial at 40° C./75% RH, 1 week in storage
[18] = Open Vial at 40° C./75% RH, 2 weeks in storage
[19] = Open Vial at 40° C./75% RH, 4 weeks in storage
[20] = Open Vial at 40° C./75% RH, 12 weeks in storage
[21] = Open Vial at 40° C./75% RH, 24 weeks in storage
[22] = Open Vial at 40° C./75% RH, Initial
[23] = pilot batch Run 1, batch size 0.5 g
[24] = pilot batch Run 2, batch size 6.6 g
[25] = pilot batch Run 3, batch size 4 g
[26] = plasma, oral, rat Female, 5 mg/kg, Day 28, mean (SE), N 3
[27] = plasma, oral, rat Male, 5 mg/kg, Day 28, mean (SE), N 3
[28] = plasma, rat Female, 15 mg/kg, Day 28, mean (SE), N 3
[29] = plasma, rat Male, 15 mg/kg, Day 28, mean (SE), N 3
[30] = plasma, oral, rat Male, 100 mg/kg, Day 10, mean (SE), N 3
[31] = plasma, rat Female, 30 mg/kg, Day 10, mean (SE), N 3
[32] = plasma, rat Male, 10 mg/kg, Day 10, mean (SE), N 3
[33] = plasma, rat Male, 30 mg/kg, Day 10, mean (SE), N 3

CCOc1cc2ncc(C#N)c(Nc3ccc(OCc4ccccn4)c(Cl)c3)c2cc1NC(=O)/C=C/CN(C)C.O.O=C(O)/C=C\C(=O)O [Form II]
form stability on exposure to ambient humidity [1]: relatively stable | relative humidity at which water is lost ([2]; especially at 10% RH and below): ≤ 20 % RH | time remained stable [3]: 6 months

CCOc1cc2ncc(C#N)c(Nc3ccc(OCc4ccccn4)c(Cl)c3)c2cc1NC(=O)/C=C/CN(C)C.O=C(O)/C=C\C(=O)O [Form I]
Final Form, wet cake [4]: I + some II | relative humidity at which moisture is gained ([2]; especially at 60% RH and above): above 40 % relative humidity (RH) | Moisture [3, 11]: 0.39% | Potency (dry basis) [3, 11]: 100.46% | Potency as is [3, 11]: 100.07% | Total impurities [3, 11]: 0.57% | Moisture [3, 12]: 0.34% | Potency (dry basis) [3, 12]: 100.38% | Potency as is [3, 12]: 100.03% | Total impurities [3, 12]: 0.64% | Moisture [3, 13]: 0.22% | Potency (dry basis) [3, 13]: 97.09% | Potency as is [3, 13]: 96.87% | Total impurities [3, 13]: 0.61% | Moisture [3, 14]: 0.46% | Potency (dry basis) [3, 14]: 100.67% | Potency as is [3, 14]: 100.21% | Total impurities [3, 14]: 0.66% | Moisture [3, 15]: 0.16% | Potency (dry basis) [3, 15]: 99.12% | Potency as is [3, 15]: 98.96% | Total impurities [3, 15]: 0.68% | Moisture [3, 16]: 0.35% | Potency (dry basis) [3, 16]: 100.85% | Potency as is [3, 16]: 100.50% | Total impurities [3, 16]: 0.57% | Moisture [3, 17]: 2.82% | Potency (dry basis) [3, 17]: 102.01% | Potency as is [3, 17]: 99.13% | Total impurities [3, 17]: 0.55% | Moisture [3, 18]: 2.86% | Potency (dry basis) [3, 18]: 100.37% | Potency as is [3, 18]: 97.50% | Total impurities [3, 18]: 0.65% | Moisture [3, 19]: 2.74% | Potency (dry basis) [3, 19]: 97.96% | Potency as is [3, 19]: 95.27% | Total impurities [3, 19]: 0.58% | Moisture [3, 20]: 2.98% | Potency (dry basis) [3, 20]: 101.13% | Potency as is [3, 20]: 98.12% | Total impurities [3, 20]: 0.65% | Moisture [3, 21]: 2.79% | Potency (dry basis) [3, 21]: 100.01% | Potency as is [3, 21]: 97.22% | Total impurities [3, 21]: 0.69% | Moisture [3, 22]: 0.35% | Potency (dry basis) [3, 22]: 100.85% | Potency as is [3, 22]: 100.50% | Total impurities [3, 22]: 0.57% | time remained stable [3]: 6 months | water uptake in open containers ([3]; open containers at 40° C. and 75% RH): rapidly absorbed one mole of water to form the monohydrate form

CCOc1cc2ncc(C#N)c(Nc3ccc(OCc4ccccn4)c(Cl)c3)c2cc1NC(=O)/C=C/CN(C)C.O=C(O)/C=C\C(=O)O [Maleate salt]
emectic receptor interaction / diarrhea [5]: minimizes emectic receptor interactions in mammals | Solution pH [6, 23]: 5.11 | Aqueous Solubility [6, 23]: 0.37 mg/g | Solution pH [6, 24]: 5.10 | Aqueous Solubility [6, 24]: 0.50 mg/g | Solution pH [6, 25]: 5.15 | Aqueous Solubility [6, 25]: 0.44 mg/g | solubility [7]: 0.37 mg/g | pH ([7]; salt screen): 5.11 | hygroscopicity ([7]; salt screen, in words): less hygroscopic | Cmax [8, 26]: 1380 ng/mL | AUC(0-t) [8, 26]: 9530 ng·h/mL | AUC(0-t) ([8]; plasma, oral, rat Female, 45 mg/kg, Day 28, mean (SE), N 3): 75600 ng·h/mL | Cmax [8, 27]: 1200 ng/mL | AUC(0-t) [8, 27]: 8220 ng·h/mL | AUC(0-t) ([8]; plasma, oral, rat Male, 45 mg/kg, Day 28, mean (SE), N 3): 65100 ng·h/mL | Cmax [8, 28]: 3560 ng/mL | AUC(0-t) [8, 28]: 34200 ng·h/mL | Cmax ([8]; plasma, rat Female, 45 mg/kg, Day 28, mean (SE), N 3): 4560 ng/mL | Cmax [8, 29]: 3420 ng/mL | AUC(0-t) [8, 29]: 30200 ng·h/mL | Cmax ([8]; plasma, rat Male, 45 mg/kg, Day 28, mean (SE), N 3): 4620 ng/mL | AUC/Dose ([8]; rat Female, 5 mg/kg, Day 28, mean (SE), N 3): 1907 (169) | AUC/Dose ([8]; rat Female, 15 mg/kg, Day 28, mean (SE), N 3): 2278 (177) | AUC/Dose ([8]; rat Female, 45 mg/kg, Day 28, mean (SE), N 3): 1681 (141) | AUC/Dose ([8]; rat Male, 5 mg/kg, Day 28, mean (SE), N 3): 1645 (126) | AUC/Dose ([8]; rat Male, 15 mg/kg, Day 28, mean (SE), N 3): 2014 (178) | AUC/Dose ([8]; rat Male, 45 mg/kg, Day 28, mean (SE), N 3): 1446 (106) | increase in AUC as compared to the free base ([8]; rat, dose range of 5 to 45 mg/kg): two-fold | solubility ([9]; 2% Tween 80 in water, aqueous with cosolvent or surfactant or cyclodextrin): 1120 µg/mL | pH of solution in 2% Tween 80 in water [9]: (pH 5.06) | pH of solution in Water [9]: (pH 5.00) | solubility ([9]; water, pH 5, water): 430 µg/mL

CCOc1cc2ncc(C#N)c(Nc3ccc(OCc4ccccn4)c(Cl)c3)c2cc1NC(=O)/C=C/CN(C)C [free base]
solubility (physchem): 50 µg/mL (≈ 89.8 µM) | emectic receptor interaction / diarrhea [5]: giving rise to diarrhea in mammals | Biopharmaceutical Classification System class ([10]; low water solubility and low permeability): BCS Class IV | solubility ([10]; water, at about pH 7): ~1 µg/mL (≈ 1.8 µM) | Cmax [8, 30]: 3820 ng/mL | AUC(0-t) [8, 30]: 58300 ng·h/mL | Cmax [8, 31]: 2440 ng/mL | AUC(0-t) [8, 31]: 25000 ng·h/mL | Cmax [8, 32]: 814 ng/mL | AUC(0-t) [8, 32]: 6780 ng·h/mL | Cmax ([8]; plasma, rat Male, 20 mg/kg, Day 1, mean (SE), N 4): 1010 ng/mL | AUC(0-inf) ([8]; plasma, rat Male, 20 mg/kg, Day 1, mean (SE), N 4, footnote a: AUC0-∞): 8510 ng·h/mL | Cmax [8, 33]: 1650 ng/mL | AUC(0-t) [8, 33]: 20400 ng·h/mL | systemic availability ([8]; rat): 20% | AUC/Dose ([8]; rat Female, 30 mg/kg, Day 10, mean (SE), N 3): 832 (145) | AUC/Dose ([8]; rat Male, 10 mg/kg, Day 10, mean (SE), N 3): 678 (64) | AUC/Dose ([8]; rat Male, 20 mg/kg, Day 1, mean (SE), N 4): 426 (81) | AUC/Dose ([8]; rat Male, 30 mg/kg, Day 10, mean (SE), N 3): 680 (78) | AUC/Dose ([8]; rat Male, 100 mg/kg, Day 10, mean (SE), N 3): 583 (125) | pH of solution in 2% Tween 80 in water [9]: (pH 6.4) | pH of solution in Water [9]: (pH 8.2)

Fumarate
pH ([7]; salt screen): 3.53

Tosylate
pH ([7]; salt screen): 4.72 | solubility ([7]; salt screen, Table 1, water): 6.89 mg/g
